ChEMBL document CHEMBL4024727, “Synthesis and antimycobacterial screening of new thiazolyl-oxazole derivatives” (Eur J Med Chem, 2017)

Tests used:
Format in all cases: functional
Pseudomonas fluorescens [1] = assay: Growth inhibition of Pseudomonas fluorescens NCIM 2059 at 10 ug/ml measured after 8 hrs relative to control; conditions: NCIM 2059, 8 h, read-out: GI
Bacillus subtilis [2] = assay: Growth inhibition of Bacillus subtilis NCIM 2162 at 30 ug/ml measured after 12 hrs relative to control; conditions: NCIM 2162, 12 h, read-out: GI
Staphylococcus aureus [3] = assay: Growth inhibition of Staphylococcus aureus NCIM 2602 at 10 ug/ml measured after 12 hrs relative to control; conditions: NCIM 2602, 12 h, read-out: GI
Staphylococcus aureus [4] = assay: Growth inhibition of Staphylococcus aureus NCIM 2602 at 30 ug/ml measured after 12 hrs relative to control; conditions: NCIM 2602, 12 h, read-out: GI
[5] = tested on: Mycobacterium tuberculosis; assay: Growth inhibition of Mycobacterium bovis BCG ATCC 35743 at 10 ug/ml by nitrate reductase based two-fold dilution assay relative to control; conditions: BCG str. ATCC 35743, read-out: GI
[6] = tested on: Mycobacterium tuberculosis; assay: Growth inhibition of Mycobacterium tuberculosis H37Ra ATCC 25177 at 10 ug/ml by XTT dye based two-fold dilution method relative to control; conditions: read-out: GI
[7] = tested on: Mycobacterium tuberculosis; assay: Growth inhibition of Mycobacterium bovis BCG ATCC 35743 at 1 ug/ml by nitrate reductase based two-fold dilution assay relative to control; conditions: BCG str. ATCC 35743, read-out: GI
Staphylococcus aureus [8] = assay: Growth inhibition of Staphylococcus aureus NCIM 2602 at 1 ug/ml measured after 12 hrs relative to control; conditions: NCIM 2602, 12 h, read-out: GI
Pseudomonas fluorescens [9] = assay: Antibacterial activity against Pseudomonas fluorescens NCIM 2059 measured after 8 hrs; conditions: NCIM 2059, 8 h
Bacillus subtilis [10] = assay: Growth inhibition of Bacillus subtilis NCIM 2162 at 10 ug/ml measured after 12 hrs relative to control; conditions: NCIM 2162, 12 h, read-out: GI
Escherichia coli [11] = assay: Growth inhibition of Escherichia coli NCIM 2576 at 30 ug/ml measured after 8 hrs relative to control; conditions: NCIM 2576, 8 h, read-out: GI
Pseudomonas fluorescens [12] = assay: Growth inhibition of Pseudomonas fluorescens NCIM 2059 at 30 ug/ml measured after 8 hrs relative to control; conditions: NCIM 2059, 8 h, read-out: GI
Pseudomonas fluorescens [13] = assay: Growth inhibition of Pseudomonas fluorescens NCIM 2059 at 1 ug/ml measured after 8 hrs relative to control; conditions: NCIM 2059, 8 h, read-out: GI
[14] = tested on: Mycobacterium tuberculosis; assay: Growth inhibition of Mycobacterium tuberculosis H37Ra ATCC 25177 at 3 ug/ml by XTT dye based two-fold dilution method relative to control; conditions: read-out: GI
Escherichia coli [15] = assay: Growth inhibition of Escherichia coli NCIM 2576 at 10 ug/ml measured after 8 hrs relative to control; conditions: NCIM 2576, 8 h, read-out: GI
Staphylococcus aureus [16] = assay: Antibacterial activity against Staphylococcus aureus NCIM 2602 measured after 12 hrs; conditions: NCIM 2602, 12 h
Escherichia coli [17] = assay: Growth inhibition of Escherichia coli NCIM 2576 at 1 ug/ml measured after 8 hrs relative to control; conditions: NCIM 2576, 8 h, read-out: GI
[18] = tested on: Mycobacterium tuberculosis; assay: Antitubercular activity against Mycobacterium tuberculosis H37Ra ATCC 25177 dormant stage by XTT dye based two-fold dilution method
[19] = tested on: Mycobacterium tuberculosis; assay: Growth inhibition of Mycobacterium tuberculosis H37Ra ATCC 25177 at 30 ug/ml by XTT dye based two-fold dilution method relative to control; conditions: read-out: GI
Bacillus subtilis [20] = assay: Antibacterial activity against Bacillus subtilis NCIM 2162 measured after 12 hrs; conditions: NCIM 2162, 12 h
Bacillus subtilis [21] = assay: Growth inhibition of Bacillus subtilis NCIM 2162 at 1 ug/ml measured after 12 hrs relative to control; conditions: NCIM 2162, 12 h, read-out: GI
[22] = tested on: Mycobacterium tuberculosis; assay: Antitubercular activity against Mycobacterium bovis BCG ATCC 35743 dormant stage by nitrate reductase based two-fold dilution assay; conditions: BCG str. ATCC 35743
Escherichia coli [23] = assay: Antibacterial activity against Escherichia coli NCIM 2576 measured after 8 hrs; conditions: NCIM 2576, 8 h
[24] = tested on: Mycobacterium tuberculosis; assay: Growth inhibition of Mycobacterium bovis BCG ATCC 35743 at 30 ug/ml by nitrate reductase based two-fold dilution assay relative to control; conditions: BCG str. ATCC 35743, read-out: GI

Row | Structure (SMILES) | inhibition of growth at 10 µg/mL (Pseudomonas fluorescens [1]) [%] | inhibition of growth at 30 µg/mL (Bacillus subtilis [2]) [%] | inhibition of growth at 10 µg/mL (Staphylococcus aureus [3]) [%] | inhibition of growth at 30 µg/mL (Staphylococcus aureus [4]) [%] | inhibition of growth at 10 µg/mL [5] [%] | inhibition of growth at 10 µg/mL [6] [%] | inhibition of growth at 1 µg/mL [7] [%] | inhibition of growth at 1 µg/mL (Staphylococcus aureus [8]) [%] | MIC (Pseudomonas fluorescens [9]) [µM] | inhibition of growth at 10 µg/mL (Bacillus subtilis [10]) [%] | inhibition of growth at 30 µg/mL (Escherichia coli [11]) [%] | inhibition of growth at 30 µg/mL (Pseudomonas fluorescens [12]) [%] | inhibition of growth at 1 µg/mL (Pseudomonas fluorescens [13]) [%] | inhibition of growth at 3 µg/mL [14] [%] | inhibition of growth at 10 µg/mL (Escherichia coli [15]) [%] | MIC (Staphylococcus aureus [16]) [µM] | inhibition of growth at 1 µg/mL (Escherichia coli [17]) [%] | IC50 [18] [µM] | MIC90 [18] [µM] | inhibition of growth at 30 µg/mL [19] [%] | other results
1 | Cc1nc(-c2ccccc2)oc1-c1csc(-c2cccc(Cl)c2)n1 | 56.2 | 69.8 | 55.6 | 69.4 | 26 | 14 | 26 | 20.5 | > 100 | 57.3 | 68.2 | 65.8 | 23.5 | 12 | 51.8 | > 100 | 24.9 | > 100 | > 100 | 27 | MIC (Bacillus subtilis [20]): > 100 µM; inhibition of growth at 1 µg/mL (Bacillus subtilis [21]): 24.8%; IC50 [22]: > 100 µM; MIC90 [22]: > 100 µM; MIC (Escherichia coli [23]): > 100 µM; inhibition of growth at 30 µg/mL [24]: 40%
2 | Cc1nc(-c2ccc(F)cc2)oc1-c1csc(-c2ccc(Br)cc2)n1 | 54.2 | 68.2 | 56.6 | 67.8 | 36 | 45 | 28 | 44.1 | > 100 | 51.8 | 69 | 68.3 | 48.6 | 43 | 60.7 | > 100 | 48.9 | > 100 | > 100 | 54 | MIC (Bacillus subtilis [20]): > 100 µM; inhibition of growth at 1 µg/mL (Bacillus subtilis [21]): 46.5%; IC50 [22]: > 100 µM; MIC90 [22]: > 100 µM; MIC (Escherichia coli [23]): > 100 µM; inhibition of growth at 30 µg/mL [24]: 42%
3 | Cc1nc(-c2ccc(F)cc2)oc1-c1csc(-c2cccc(Cl)c2)n1 | 38.3 | 50.8 | 35.7 | 48.1 | 24 | 29 | 23 | 28.5 | > 100 | 40.6 | 49.5 | 48.3 | 24.8 | 29 | 40.5 | > 100 | 23.4 | > 100 | > 100 | 32 | MIC (Bacillus subtilis [20]): > 100 µM; inhibition of growth at 1 µg/mL (Bacillus subtilis [21]): 28.8%; IC50 [22]: > 100 µM; MIC90 [22]: > 100 µM; MIC (Escherichia coli [23]): > 100 µM; inhibition of growth at 30 µg/mL [24]: 32%
4 | Cc1nc(-c2ccccc2)oc1-c1csc(-c2ccc(F)cc2)n1 | 45.1 | 60.6 | 41.7 | 60.5 | 16 | 13 | 11 | 34.6 | > 100 | 49.4 | 58.5 | 61 | 31.8 | 8 | 47.2 | > 100 | 38.4 | > 100 | > 100 | 13 | MIC (Bacillus subtilis [20]): > 100 µM; inhibition of growth at 1 µg/mL (Bacillus subtilis [21]): 37.7%; IC50 [22]: > 100 µM; MIC90 [22]: > 100 µM; MIC (Escherichia coli [23]): > 100 µM; inhibition of growth at 30 µg/mL [24]: 27%
5 | Cc1nc(-c2ccccc2)oc1-c1csc(-c2ccc(Cl)cc2)n1 | 23.7 | 45.7 | 22.3 | 48.9 | 41 | 45 | 30 | 12.8 | > 100 | 29.2 | 48.9 | 44.9 | 10.5 | 38 | 25.3 | > 100 | 11.1 | > 100 | > 100 | 46 | MIC (Bacillus subtilis [20]): > 100 µM; inhibition of growth at 1 µg/mL (Bacillus subtilis [21]): 14.9%; IC50 [22]: > 100 µM; MIC90 [22]: > 100 µM; MIC (Escherichia coli [23]): > 100 µM; inhibition of growth at 30 µg/mL [24]: 43%
6 | Cc1nc(-c2ccccc2)oc1-c1csc(-c2ccc(Br)cc2)n1 | 74.2 | 88 | 72.2 | 85.2 | 36 | 17 | 31 | 67.8 | > 100 | 74.3 | 85.6 | 85.2 | 64.5 | 11 | 79.1 | > 100 | 67.7 | > 100 | > 100 | 33 | MIC (Bacillus subtilis [20]): > 100 µM; inhibition of growth at 1 µg/mL (Bacillus subtilis [21]): 65%; IC50 [22]: > 100 µM; MIC90 [22]: > 100 µM; MIC (Escherichia coli [23]): > 100 µM; inhibition of growth at 30 µg/mL [24]: 39%
